The subject of this assay is 5-HT3A-QDA receptor. As to the kind of experiment: Outside-out patch clamp of transfected HEK293 cells, effect of ondansetron on 5-HT activated channels. Type of assay: cell-based. The settings on record: 1 µM ondansetron with 5-HT, -60 mV, data not shown. The protocol: HEK293 cells (CRL-1573, ATCC, Manassas, VA) seeded at low density on poly-lysine-coated, 12 mm, thin glass coverslips were transfected 24 h later using a modified calcium-phosphate precipitation technique with 500 ng DNA per well. After 12 h, cells were rinsed with fresh medium (DMEM supplemented with 10% FBS+100 Units ml^-1 penicillin+100 μg ml^-1 streptomycin+4 mM L-glutamine) and incubated at 28°C [34]. Recordings were performed 24-48 h later. For patch clamp experiments the coverslips were mounted on an inverted Zeiss IM microscope equipped with epifluorescent illumination. Cells expressing the GFP reporter were selected for patch clamp recording. Pipettes pulled from borosilicate glass capillaries ([…]-10, Harvard Apparatus Inc., Holliston, MA) with a tip resistance of 8-13 MΩ when filled with intracellular solution. The recordings were done using outside-out and cell-attached patch configurations. Data was acquired with an EPC9 amplifier using Pulse software, v8.65 (HEKA Instruments Inc., Bellmore, NY). Data were sampled at 20 kHz and filtered at 10 kHz. All point histograms and fits with a sum of two or three Gaussian functions were performed using the Levenberg-Marquardt algorithm implemented in Qub software. […] Effects of ondansetron were determined in the outside-out recording configuration at a holding potential of -60 mV.

These results are taken from publication PMC3335078, “Length and Amino Acid Sequence of Peptides Substituted for the 5-HT3A Receptor M3M4 Loop May Affect Channel Expression and Desensitization” (PLoS ONE, 2012).

Turning to `Cc1nccn1CC1CCc2c(c3ccccc3n2C)C1=O` (stereo not shown) [ondansetron, Ondansetron], the “Block of 5-HT activated single channels” value was “no similar channels were observed”.
